Test results from patent EP2787958B1, “CHELIDONIUM MAJUS EXTRACTS AND THEIR USE IN THE TREATMENT OF SKIN DISORDERS AND PROMOTION OF SKIN REGENERATION” (priority 2011, dated 2013).
Like-named read-outs stand apart in the source and are kept apart here.

Legend:
[1] = test system: interleukin 1β (IL-1β); experiment: Inflammatory cytokines in cell supernatant (Mosaic ELISA microarray): IL-1β; type: cell-based, Human; details: for IL-1β ng/(ml* No. of cells from photo) ± SD: 24 hours; for IL-1β production (effect in words): 1-10 µM
Procedure: (§1) The inflammatory cytokines, CD40 ligand (CD40L), interferon γ (INF-γ), interleukin 1α (IL-1α), interleukin 1β (IL-1β), interleukin 6 (IL-6), interleukin 8 (IL-8), interleukin 17 (IL-17) and tumour necrosis factor α (TNF-α) were determined qualitatively and quantitatively. Each measurement was performed in duplicate using a Mosaic™ ELISA protein microarray assay system from R&D System in accordance with the supplier's instructions. Furthermore, with the aim of obtaining a correlation model between light signal intensity and cytokine concentration, a calibration curve using 6 concentrations was performed for each of them. Analysis of the data was performed using the dedicated Q-View™ Imager software package from Quansys Biosciences

[2] = test system: interleukin 6 (IL-6); experiment: Inflammatory cytokines in cell supernatant (Mosaic ELISA microarray): IL-6; type: cell-based, Human; details: for IL-6 ng/(ml* No. of cells from photo) ± SD: 24 hours; for IL-6 production (effect in words): 1-10 µM
Procedure: as §1

[3] = Anti-radical activity (decay of the DPPH radical); type: biochemical; details: for Anti-radical (skin protective): 24 hours
Procedure: With regard to assays aimed at evaluating anti-radical activity, a chemical test was used where the decay of the diphenylpicrylhydrazyl (DPPH) radical is assessed in the absence or in the presence of the test substances. Indeed, the DPPH radical is used to test the ability of substances to act as free radical scavengers. DPPH in solution has a purple colour with a maximum absorbance peak at 517 nm which changes to yellow-colourless when this radical extracts a hydrogen atom from a radical scavenger to give rise to the reduced form DPPH-H. The assay has been conducted in quadruplicate in 96 well microplates (SARSTEDT Tissue Culture Plate 96-well flat bottom cell+). 50 µl of an ethanol solution of the test substance at 2X concentration and then 50 µl of a 200 µM solution of DPPH (MW 168,18, Aldrich 2,2-di(4-tert-octylphenyl)-1-picrylhydrazyl, free radical Lot# MKBF7574V Cat N° 257621-100 mg) have been added to each well of the microplate. A positive control consisting of 0.1 mM vitamin C and a negative control consisting of ethanol alone were included in each microplate. After 30 minutes from the addition of DPPH, photographs of the plates were taken (Canon PowerShot A610 5.0 Mpixels) and read spectrophotometrically at 530 nm.
Based on the analysis of the results reported in Table 9, some substances were selected for further characterisation of their anti-radical activity. For the selected substances, dose-activity curves were obtained and the IC50 value were computed using a non-linear regression model with the Hill equation at variable slope. Such substances had been selected due to both their anti-radical potential and the easiness of their isolation/production. The selection of substances was made in view of cosmetics applications. Moreover their activity on human dermal fibroblasts (HDF) is expected to be useful also for the development of dermatological medications. The selected substances are discussed below.

[4] = test system: HDF cells; experiment: Summary of uses and toxic effects deduced from the cell assays (Table 1); type: cell-based, Human
Procedure: Antiradical (skin protective): this is deduced from the free radical scavenger effects.
Revitalizing: this is deduced from the increased mitochondrial dehydrogenase effect.
Cytoprotective, with regard to oxidative damage (antioxidant, anti-inflammatory and anti-ageing): this is deduced from antagonising the stimulation of IL-1β and/or IL-6 induced by 100 µM H2O2 and from the absence of changes in cell morphology similar to the ones due to cell senescence.
Wound healing: this is deduced from the effect of inhibiting the production of IL-1β and by the effect of stimulating cell proliferation under standard growth conditions.
Cytotoxicity: this is deduced from the effect of reducing mitochondrial dehydrogenase activity or from the presence of morphologies characteristic of cell senescence.
Irritation: this is deduced from the effect of increased production of IL-6 and/or IL-1β under standard growth conditions.
Said uses in the fields of medicine and cosmetics or the toxic effects of the substances of the invention at a given dosage, for 24 hours, are summarized in Table 1 below.

[5] = test system: collagen produced by HDF cells; experiment: Quantity of collagen produced by the cells (elution of Sirius Red)
[6] = test system: Human dermal fibroblasts (HDF); experiment: Mitochondrial dehydrogenase activity (WST-1 formazan assay) in HDF cells; details: for Revitalizing agent: 24 hours; for activity at 1 µM / activity at 7.3 µM: Homo sapiens, Fibroblast, read-out: % mitochondrial dehydrogenase activity ± SD
Procedure: Human dermal fibroblasts were used for assay at the 3rd T75 passage.
Mitochondrial dehydrogenase activity was measured in HDF, HEK and HUVEC cells by means of the formazan assay, using the WST-1 kit from Roche Diagnostic in accordance with the supplier's instructions. Briefly: the reagent was added (10 µl per well), the incubation was carried out for a further 2 hours or 4 hours, and, at the end of this time, the absorbance was read for 1 s at a wavelength of 450 nm in a Perkin Elmer Victor 2 Wallac microplate reader.
The activity percentage (% mitochondrial dehydrogenase activity) is defined as: % mitochondrial dehydrogenase activity = ((absorbance of treated cells - absorbance of blank) / (absorbance of control - absorbance of blank)) x 100.
The tests were performed with observations after 18 hours, seeding 8,000 cells per well, and after 42 hours, seeding 2,000 cells per well. Furthermore, in order to better analyze the dose/response curves for dihydroberberine, canadine and stylopine, curves were collected at 11 concentrations by seeding 2,000 cells per well with 46 hours incubation.
Dose/response curves are plotted at 6 concentrations. The tests were performed with observations after 24 hours, seeding 8,000 cells per well.

[7] = test system: HDF cells; experiment: Evaluation of cell proliferation (counting of Sirius Red stained cells in photographs); details: 24 hours
[8] = Dose 1 µm (coptisine: 1 pm [sic])
[9] = Dose 1 µm (coptisine: 1 pm [sic]), 24 hours

COc1ccc2c(c1OC)CN1CCc3cc4c(cc3C1=C2)OCO4 [dihydroberberine]
IL-1β ng/(ml* No. of cells from photo) ± SD ([1]; 1 µM, 34 ng/ml TGF-β1): 99±10 ng/(ml* No. of cells from photo)
IL-1β ng/(ml* No. of cells from photo) ± SD ([1]; 1 µM, 100 µM H2O2): 164±1 ng/(ml* No. of cells from photo)
IL-1β ng/(ml* No. of cells from photo) ± SD ([1]; 1 µM, Standard conditions): 108±1 ng/(ml* No. of cells from photo)
IL-1β ng/(ml* No. of cells from photo) ± SD ([1]; 7.3 µM, 34 ng/ml TGF-β1): 129±1 ng/(ml* No. of cells from photo)
IL-1β ng/(ml* No. of cells from photo) ± SD ([1]; 7.3 µM, 100 µM H2O2): 212±18 ng/(ml* No. of cells from photo)
IL-1β ng/(ml* No. of cells from photo) ± SD ([1]; 7.3 µM, Standard conditions): 125±2 ng/(ml* No. of cells from photo)
IL-1β production (effect in words) ([1]; 34 ng/ml TGF-β1): antagonizes the stimulation of IL-1β induced by 34 ng/ml TGF-β1
IL-1β production (effect in words) ([1]; 100 µM H2O2): tendency to increase IL-1β production in a dose-dependent manner
IL-1β production (effect in words) ([1]; standard conditions): tendency to increase IL-1β production in a dose-dependent manner
IL-6 ng/(ml* No. of cells from photo) ± SD ([2]; 1 µM, 34 ng/ml TGF-β1): 512±25 ng/(ml* No. of cells from photo)
IL-6 ng/(ml* No. of cells from photo) ± SD ([2]; 1 µM, 100 µM H2O2): 1328±2 ng/(ml* No. of cells from photo)
IL-6 ng/(ml* No. of cells from photo) ± SD ([2]; 1 µM, Standard conditions): 541±24 ng/(ml* No. of cells from photo)
IL-6 ng/(ml* No. of cells from photo) ± SD ([2]; 7.3 µM, 34 ng/ml TGF-β1): 704±60 ng/(ml* No. of cells from photo)
IL-6 ng/(ml* No. of cells from photo) ± SD ([2]; 7.3 µM, 100 µM H2O2): 1685±444 ng/(ml* No. of cells from photo)
IL-6 ng/(ml* No. of cells from photo) ± SD ([2]; 7.3 µM, Standard conditions): 534±39 ng/(ml* No. of cells from photo)
IL-6 production (effect in words) ([2]; 34 ng/ml TGF-β1): tendency to antagonise the stimulation of IL-6 induced by TGF-β1
IL-6 production (effect in words) ([2]; 100 µM H2O2): significant effects in modulating IL-6 production
IL-6 production (effect in words) ([2]; standard conditions): significant effects in modulating IL-6 production
anti-radical effects (in words) ([3]; 1 mM): shows anti-radical effects
% DPPH activity ([3]; 1 mM, 30 minutes): 55%
Anti-radical (skin protective) [3, 8]: Yes
Anti-radical (skin protective) ([3]; Dose 7.3 µm): Yes
IC50 ([3]; anti-radical activity, Hill equation): 62 µM
Cytotoxic [4]: No
Anti-fibrotic (prevention of scar formation, also from acne) [4, 9]: Yes (↓collagen)
Cytoprotective (antioxidant, anti-inflammatory and anti-ageing; useful also in the treatment of acne) [4, 9]: No
Wound-healing [4, 9]: No
Anti-fibrotic (prevention of scar formation, also from acne) ([4]; Dose 7.3 µm, 24 hours): Yes (↓collagen)
Cytoprotective (antioxidant, anti-inflammatory and anti-ageing; useful also in the treatment of acne) ([4]; Dose 7.3 µm, 24 hours): No
Cytotoxic ([4]; Dose 7.3 µm, 24 hours): No
Irritant ([4]; Dose 7.3 µm, 24 hours): Yes (↑IL-6, ↑IL-1β)
Wound-healing ([4]; Dose 7.3 µm, 24 hours): No
concentrations at which toxic (irritant) effects are shown ([4]; exposure for 24 hours): greater than or equal to 1 µM
Irritant ([4]; human, 24 h, 1 µm): Yes (↑IL-6, ↑IL-1β)
collagen production (effect in words) ([5]; 1-10 µM (1 µM and 10 µM), 34 ng/ml TGF-β1): antagonizes the stimulation of collagen induced by 34 ng/ml TGF-β1
collagen production (effect in words) ([5]; 1-10 µM (1 µM and 10 µM), 100 µM H2O2): stimulates collagen production in a dose-dependent manner
collagen production (effect in words) ([5]; 1-10 µM, standard conditions): stimulates collagen production in a dose-dependent manner
concentrations below which no significant effects on mitochondrial dehydrogenase activity are shown [6]: below 0.1 µM
mitochondrial dehydrogenase activity (effect in words) ([6]; 100 µM): reduced
mitochondrial dehydrogenase activity (effect in words) ([6]; 1 and 10 µM, 18 h and 42 h, more marked at 42 h): increased with respect to the control
Revitalizing agent [6, 8]: Yes
Revitalizing agent ([6]; Dose 7.3 µm): Yes
activity at 1 µM ([6]; 18 h): 131 ± 5.4%
activity at 7.3 µM ([6]; 18 h): 128 ± 13.8%
activity at 1 µM ([6]; 42 h): 143 ± 14.1%
activity at 7.3 µM ([6]; 42 h): 137 ± 17.6%
activity at 1 µM ([6]; 46 h): 121 ± 19.6%
activity at 7.3 µM ([6]; 46 h): 192 ± 24.4%
mitochondrial dehydrogenase activity (effect in words) ([6]; fibroblast cells, higher doses): inhibit mitochondrial dehydrogenase activity
mitochondrial dehydrogenase activity (effect in words) ([6]; fibroblast cells, low dosage): stimulate mitochondrial dehydrogenase activity
No. of cells from photo ± SD ([7]; 1 µM, 34 ng/ml TGF-β1): 232±13
No. of cells from photo ± SD ([7]; 1 µM, 100 µM H2O2): 146±26
No. of cells from photo ± SD ([7]; 1 µM, Standard conditions): 160±18
No. of cells from photo ± SD ([7]; 7.3 µM, 34 ng/ml TGF-β1): 193±27
No. of cells from photo ± SD ([7]; 7.3 µM, 100 µM H2O2): 108±3
No. of cells from photo ± SD ([7]; 7.3 µM, Standard conditions): 129±13
